Key:
PRMT5 [1] = target: T1, PRMT5 (Homo sapiens, UniProt O14744); test: PRMT5 biochemical IC50 assay with no cofactor; details: PRMT5, no cofactor
T1 construct: purchased Viva (custom protein)
From the text: Table 1 indicates IC50 values (μM) against PRMT5 for exemplary compounds in the presence of SAM as cofactor, with no cofactor, and with MTA as cofactor, respectively (columns 4-6). […] Ki values can be calculated from the IC50 values as described in the Examples section. As detailed in the Examples section, for the assay performed in the presence of SAM, IC50=Ki×1.5 (Ki=IC50/1.5).

PRMT5 [2] = target: T1, PRMT5; test: PRMT5 biochemical IC50 assay with MTA as cofactor; details: PRMT5, MTA as cofactor; read-out: MTA IC50
[3] = tested on: HAP1 MTAP-deleted cell line; test: SDMA in-cell western assay, HAP1 MTAP-deleted; type: cell-based; details: for IC50: Homo sapiens, HAP1, SDMA in-cell western, HAP1 MTAP-deleted; for MTAP intact/deleted ratio: SDMA in-cell western
How it was run: (§1)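 Compounds were tested in HAP1 cells differing only in MTAP status (endogenous expression versus null). Cellular SDMA levels were then measured by in-cell western, giving an IC50 in each background.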

[4] = tested on: HAP1 MTAP-deleted cell line; test: Viability assay, MTAP-deleted cell line; type: cell-based; details: Homo sapiens, read-out: HAP1 MTAP deleted viability
From the text: Table 1 additionally indicates IC50 values in a viability assay for the MTAP-deleted cell line (column 10), indicating the effect of treatment with compound on cell survival.

[5] = tested on: HAP1 MTAP-intact cell line; test: SDMA in-cell western assay, HAP1 MTAP-intact; type: cell-based; details: Homo sapiens, HAP1, SDMA in-cell western, HAP1 MTAP-intact; read-out: MTAP HAP1 intact IC50
How it was run: as §1

PRMT5 [6] = target: T1, PRMT5; test: PRMT5 biochemical IC50 assay with SAM as cofactor; details: PRMT5, SAM as cofactor; read-out: SAM IC50
[7] = read-out: HAP1 MTAP deleted IC50
[8] = IC50 ratio HAP1 MTAP-intact / HAP1 MTAP-deleted
[9] = HAP1, viability assay, MTAP-deleted cell line
[10] = read-out: No Cofactor/ rel IC50
[11] = read-out: HAP 1 MTAP deleted IC50
[12] = HAP1, viability IC50, MTAP-deleted cell line
[13] = IC50 ratio HAP1 MTAP-intact vs HAP1 MTAP-deleted
[14] = HAP1, viability assay, HAP1 MTAP-deleted

T1 sequence (O14744 whole entry): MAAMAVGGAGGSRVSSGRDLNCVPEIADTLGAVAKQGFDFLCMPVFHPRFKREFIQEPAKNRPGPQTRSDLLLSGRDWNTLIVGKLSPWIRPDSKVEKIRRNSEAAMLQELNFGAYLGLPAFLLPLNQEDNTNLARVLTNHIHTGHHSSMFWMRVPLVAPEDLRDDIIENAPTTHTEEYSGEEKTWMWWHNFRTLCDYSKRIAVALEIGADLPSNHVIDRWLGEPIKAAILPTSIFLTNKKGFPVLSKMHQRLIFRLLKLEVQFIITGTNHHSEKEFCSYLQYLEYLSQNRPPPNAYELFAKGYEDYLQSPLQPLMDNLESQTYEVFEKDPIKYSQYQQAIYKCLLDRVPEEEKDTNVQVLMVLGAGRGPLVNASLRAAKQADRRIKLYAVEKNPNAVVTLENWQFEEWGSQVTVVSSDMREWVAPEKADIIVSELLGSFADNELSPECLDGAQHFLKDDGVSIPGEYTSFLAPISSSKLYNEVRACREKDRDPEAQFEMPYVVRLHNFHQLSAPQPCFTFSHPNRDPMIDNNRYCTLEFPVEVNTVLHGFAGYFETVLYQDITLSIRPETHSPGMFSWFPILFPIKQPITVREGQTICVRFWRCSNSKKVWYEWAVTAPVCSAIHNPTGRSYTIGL
T1 sequence (Q9BQA1 whole entry partner): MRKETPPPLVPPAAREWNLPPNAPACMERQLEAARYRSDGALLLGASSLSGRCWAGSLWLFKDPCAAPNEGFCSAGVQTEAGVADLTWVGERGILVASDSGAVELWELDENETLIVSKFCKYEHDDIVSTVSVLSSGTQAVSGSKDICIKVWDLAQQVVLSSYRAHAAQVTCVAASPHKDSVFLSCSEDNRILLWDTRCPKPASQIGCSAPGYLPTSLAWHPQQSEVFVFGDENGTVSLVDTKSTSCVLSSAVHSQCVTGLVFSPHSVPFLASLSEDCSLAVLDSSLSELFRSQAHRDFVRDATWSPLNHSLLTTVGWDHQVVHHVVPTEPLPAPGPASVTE

SMILES | IC50 (PRMT5 [1]; read-out: No Cofactor/rel IC50) [nM] | IC50 (PRMT5 [2]) [nM] | IC50 [3, 7] [nM] | MTAP intact/deleted ratio [3, 8] | IC50 [4, 9] [nM] | IC50 [5] [nM] | IC50 (PRMT5 [6]) [nM] | IC50 (PRMT5 [1]; [10]) [nM] | IC50 [3, 11] [nM] | IC50 [4, 12] [nM] | MTAP intact/deleted ratio [3, 13] | IC50 [4, 14] [nM] | IC50 ([4]; HAP1, viability, HAP1 MTAP-deleted cell line) [nM]
C[C@@H]1CC[C@@H](c2ccc(C(N)=O)cc2)N(C(=O)C(=O)Nc2cncc(C(N)=O)c2)C1 (racemic) [Compound 220, rac-5-{2-[(2R,5S)-2-(4-Carbamoylphenyl)-5-methylpiperidin-1-yl]-2-oxoacetamido}pyridine-3-carboxamide] | 50 to 500 | < 50 | 100 to 1000 | A (an IC50 ratio greater than or equal to 10 fold) | > 10000 | > 1000 | 50 to 500 |  |  |  |  |  | 
CC(=O)N1CCC(c2cccc(C3CCCCN3C(=O)C(=O)Nc3cncc(C)c3)c2)CC1 (stereo not shown) [Compound 7, 2-(2-(3-(1-acetylpiperidin-4-yl)phenyl)piperidin-1-yl)-N-(5-methylpyridin-3-yl)-2-oxoacetamide] |  | 50 to 500 |  | C (an IC50 ratio of less than 3 fold) | > 10000 | > 1000 | > 500 | > 500 | > 1000 |  |  |  | 
Cc1cc(NC(=O)C(=O)N2C[C@H](C)C[C@@H](F)[C@H]2c2ccc(F)cc2)cnc1N (racemic) [Compound 939, N-(6-amino-5-methyl-3-pyridyl)-2-[(2R,3R,5R)-3-fluoro-2-(4-fluorophenyl)-5-methyl-1-piperidyl]-2-oxo-acetamide] | 50 to 500 | 50 to 500 |  | A (an IC50 ratio greater than or equal to 10 fold) | 1000 to 10000 | > 1000 | 50 to 500 |  | 100 to 1000 |  |  |  | 
Cc1cc(NC(=O)C(=O)N2CCCCC2c2cccc3c2ncn3C)cnc1N (stereo not shown) [Compound 132, N-(6-Amino-5-methyl-3-pyridyl)-2-[2-(1-methylbenzimidazol-4-yl)-1-piperidyl]-2-oxo-acetamide] |  | 50 to 500 |  | B (an IC50 ratio greater than or equal to 3 fold but lower than 10 fold) | > 10000 | > 1000 | > 500 | > 500 | > 1000 |  |  |  | 
COc1cc([C@H]2CC[C@H](C)CN2C(=O)C(=O)Nc2cnc(N)c(C)c2)ccn1 (single isomer, unassigned) [Compound 538] | > 500 | > 500 |  | B (an IC50 ratio greater than or equal to 3 fold but lower than 10 fold) |  | > 1000 | > 500 |  | > 1000 | > 10000 |  |  | 
Cc1cncc(NC(=O)C(=O)N2C[C@@H](C)CC[C@H]2c2cccc(F)c2)c1 (single isomer, unassigned) [Compound 1080] | > 500 | > 500 | > 1000 |  | > 10000 | > 1000 | > 500 |  |  |  | C (an IC50 ratio of less than 3 fold) |  | 
CCc1nc2cc([C@@H]3CC[C@@H](C)CN3C(=O)C(=O)Nc3cnc(N)c(C)c3)ccc2s1 (racemic) [Compound 1184, N-(6-amino-5-methylpyridin-3-yl)-2-(2-(2-ethylbenzo[d]thiazol-5-yl)-5-methylpiperidin-1-yl)-2-oxoacetamide] | 50 to 500 | 50 to 500 | < 100 |  | < 1000 | 100 to 1000 | 50 to 500 |  |  |  | A (an IC50 ratio greater than or equal to 10 fold) |  | 
Cc1cc(NC(=O)C(=O)N2CCCCC2c2cccc3[nH]cnc23)cnc1N (stereo not shown) [Compound 142, N-(6-Amino-5-methyl-3-pyridyl)-2-[2-(1H-benzimidazol-4-yl)-1-piperidyl]-2-oxo-acetamide] |  | 50 to 500 |  | B (an IC50 ratio greater than or equal to 3 fold but lower than 10 fold) | > 10000 | > 1000 | 50 to 500 | > 500 | > 1000 |  |  |  | 
Cc1cc(NC(=O)C(=O)N2C[C@H](C(F)(F)F)CC[C@H]2c2ccccc2)cnc1N (racemic) [Compound 177, rac-N-(6-amino-5-methylpyridin-3-yl)-2-oxo-2-((2R,5S)-2-phenyl-5-(trifluoromethyl)piperidin-1-yl)acetamide] | 50 to 500 | 50 to 500 | > 1000 | B (an IC50 ratio greater than or equal to 3 fold but lower than 10 fold) | > 10000 | > 1000 | 50 to 500 |  |  |  |  |  | 
C[C@@H]1CC[C@@H](c2ccc3c(c2)C[C@@H](C)O3)N(C(=O)C(=O)Nc2cncc(C(N)=O)c2)C1 (single isomer, unassigned) [Compound 329] | 50 to 500 | < 50 | < 100 | A (an IC50 ratio greater than or equal to 10 fold) | 1000 to 10000 | > 1000 | 50 to 500 |  |  |  |  |  | 
COc1ncc(NC(=O)C(=O)N2C[C@@H](C)CC[C@@H]2c2ccc(C)nc2)cc1C(N)=O (single isomer, unassigned) [Compound 770] | > 500 | > 500 | > 1000 | C (an IC50 ratio of less than 3 fold) |  | > 1000 | > 500 |  |  |  |  | > 10000 | 
Cc1cncc(NC(=O)C(=O)N2C[C@@H](C)CC[C@@H]2c2cccc(Cl)c2)c1 (single isomer, unassigned) [Compound 87] |  | 50 to 500 |  | C (an IC50 ratio of less than 3 fold) | > 10000 | > 1000 | 50 to 500 | 50 to 500 | > 1000 |  |  |  | 
CCc1cc(NC(=O)C(=O)N2C[C@@H](C)CC[C@@H]2c2ccc3sc(C4CCN(CCF)CC4)nc3c2)cnc1N [Compound 1174, N-(6-amino-5-ethylpyridin-3-yl)-2-((2R,5S)-2-(2-(1-(2-fluoroethyl)piperidin-4-yl)benzo[d]thiazol-5-yl)-5-methylpiperidin-1-yl)-2-oxoacetamide] | < 50 | < 50 | < 100 |  | < 1000 | < 100 | < 50 |  |  |  | A (an IC50 ratio greater than or equal to 10 fold) |  | 
Cc1cc(NC(=O)C(=O)N2C[C@H](C)CC[C@H]2c2cccc(S(N)(=O)=O)c2)cnc1N (racemic) [Compound 688, N-(6-amino-5-methyl-3-pyridyl)-2-[(2S,5R)-5-methyl-2-(3-sulfamoylphenyl)-1-piperidyl]-2-oxo-acetamide] | 50 to 500 | < 50 |  | A (an IC50 ratio greater than or equal to 10 fold) |  | > 1000 | 50 to 500 |  | 100 to 1000 | 1000 to 10000 |  |  | 
CC(=O)Nc1ccc([C@@H]2CC[C@@H](C)CN2C(=O)C(=O)Nc2cnc(N)c(C)c2)cc1 (single isomer, unassigned) [Compound 527] | < 50 | < 50 | < 100 | A (an IC50 ratio greater than or equal to 10 fold) | < 1000 | 100 to 1000 | 50 to 500 |  |  |  |  |  | 
CCc1cc(NC(=O)C(=O)N2C[C@@H](C)CC[C@@H]2c2ccc3sc([C@@H]4CCN(C)C4)nc3c2)cnc1N (single isomer, unassigned) [Compound 1308] |  | < 50 |  | A (an IC50 ratio greater than or equal to 10 fold) |  | < 100 | 50 to 500 | < 50 | < 100 |  |  |  | < 1000
Cc1cc(NC(=O)C(=O)N2C[C@@H](C)CC[C@@H]2c2ccc3c(c2)CCC(=O)N3)cnc1C (single isomer, unassigned) [Compound 619] | > 500 | > 500 |  | A (an IC50 ratio greater than or equal to 10 fold) |  | > 1000 | > 500 |  | 100 to 1000 | 1000 to 10000 |  |  | 
CCc1cc(NC(=O)C(=O)N2C[C@@H](C)CC[C@@H]2c2ccc3sc(C)nc3c2)cnc1N (single isomer, unassigned) [Compound 800] | < 50 | < 50 | < 100 | A (an IC50 ratio greater than or equal to 10 fold) |  | 100 to 1000 | 50 to 500 |  |  |  |  | < 1000 | 
CC(=O)Oc1ccc([C@H]2CC[C@H](C)CN2C(=O)C(=O)Nc2cnc(N)c(C)c2)cc1 (single isomer, unassigned) [Compound 597] | > 500 | > 500 |  | B (an IC50 ratio greater than or equal to 3 fold but lower than 10 fold) |  | > 1000 | > 500 |  | > 1000 | > 10000 |  |  | 

Source: patent publication US11999727B2 (Tango Therapeutics, Inc., priority 2020, dated 2024)
